Assays:
[1] = test system: human pancreatic cancer MIA PaCa-2 cell line subcutaneous xenograft; experiment: In-vivo inhibition of MiaPaCa-2 subcutaneous xenograft tumor; design: species or system female BALB/c nude mouse
Experimental: To evaluate the antitumor effect of each test drug in a female BALB/c nude mouse animal model with subcutaneous xenograft of a human pancreatic cancer MIA PaCa-2 cell line.
MIA PaCa-2 cells were cultured in a DMEM medium containing 2.5% HS and 10% fetal bovine serum. MIA PaCa-2 cells in the logarithmic growth phase were collected and resuspended in PBS to achieve an appropriate concentration for subcutaneous tumor inoculation in nude mice.
The experimental mice were inoculated subcutaneously on the right dorsal side with 5×10^6 MIA PaCa-2 cells (the cells were resuspended in a 1:1 mixture of PBS and matrigel), with 0.1 mL per mouse. Tumor growth was observed regularly. Once the tumors reached an average volume of approximately 125 (100-150) mm^3, the mice were randomly divided into groups for administration based on the tumor size and body weight.
After the start of the administration, the body weight and tumor size of the mice were measured twice a week. Calculation formula for tumor volume: Tumor volume (mm^3)=1/2×(a×b^2) (where a represents long diameter and b represents short diameter).

[2] = target: T1, SHP2 (Homo sapiens, UniProt Q06124); experiment: SHP2 in-vitro enzymology experiment (Homogeneous Full Length SHP-2 Assay Kit, DiFMUP substrate); format: biochemical; details: 60 min pre-incubation, 30 min reaction at 25° C.
T1 construct: Homogeneous Full Length SHP-2 Assay Kit (purchased from BPS Bioscience); purchased BPS Bioscience
T1 sequence (Q06124 1-593): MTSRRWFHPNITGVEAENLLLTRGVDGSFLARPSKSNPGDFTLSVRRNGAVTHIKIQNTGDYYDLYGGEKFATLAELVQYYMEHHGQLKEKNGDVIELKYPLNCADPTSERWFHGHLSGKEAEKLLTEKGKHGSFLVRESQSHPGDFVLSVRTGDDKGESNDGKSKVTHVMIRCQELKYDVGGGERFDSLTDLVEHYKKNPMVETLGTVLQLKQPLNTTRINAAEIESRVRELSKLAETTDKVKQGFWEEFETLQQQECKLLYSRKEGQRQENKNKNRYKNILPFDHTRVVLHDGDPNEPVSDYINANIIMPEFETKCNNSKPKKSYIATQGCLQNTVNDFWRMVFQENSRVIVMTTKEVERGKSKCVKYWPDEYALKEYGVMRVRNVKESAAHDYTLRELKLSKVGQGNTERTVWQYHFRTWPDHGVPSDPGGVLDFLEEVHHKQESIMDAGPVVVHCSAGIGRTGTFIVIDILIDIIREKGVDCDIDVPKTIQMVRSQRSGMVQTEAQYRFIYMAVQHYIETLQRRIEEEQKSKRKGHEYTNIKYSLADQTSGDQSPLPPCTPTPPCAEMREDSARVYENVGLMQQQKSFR
Experimental: Experimental materials: Homogeneous Full Length SHP-2 Assay Kit (purchased from BPS Bioscience) and NIVO multimode microplate reader.
Preparation of 1× buffer (ready-to-use): 5× buffer was diluted with deionized water to give 1× buffer, which was then placed on ice for later use.
Each test compound was diluted with 100% DMSO to 100 μM as the first concentration, and then diluted in a 4-fold gradient to the 8th concentration (i.e., from 100 μM to 6.1 nM) using a multi-channel pipette. Each gradient of the test compound was diluted with 1× buffer to prepare a working solution with 10% DMSO. The resulting solution was then added to the corresponding wells of a plate at 5 μL/well, with duplicate wells set up. The plate was then centrifuged at 1000 rpm for 1 min.
18 μL of a prepared reaction mixed solution (containing 12.25 μL of deionized water, 5 μL of 5× buffer; 0.25 μL of SHP-2 substrate polypeptide (100 μM), and 0.5 μL of DTT (250 mM)) was added to each well. The plate was then centrifuged at 1000 rpm for 1 min.
An SHP-2 enzyme was diluted to 0.1 ng/μL with 1× buffer. The resulting solution was added to the corresponding wells at 2 μL/well, and 2 μL of 1× buffer and […] were added to each negative control well. This step was performed on ice. The reaction system was then incubated at 25° C. for 60 min for compound pre-incubation.
After the compound pre-incubation was completed, 25 μL of a substrate working solution (containing 19.45 μL of deionized water, 5 μL of 5× buffer; 0.5 μL of DTT (250 mM), and 0.05 μL of SHP-2 Substrate (DiFMUP) (10 mM)) was added to each well, and the reaction system was allowed to react at 25° C. for 30 min. At that time, the final concentration gradient of the compound ranged from 1 μM to 0.061 nM. After the reaction was completed, the fluorescence values were read using the NIVO multimode microplate reader, with an excitation wavelength of 360 nm and an emission wavelength of 460 nm.
Detection of compound background reading values: Each gradient of the test compound diluted with 100% DMSO was added to a new compound plate at 5 μL/well, and then 1× buffer was added at 45 μL/well to achieve a 10-fold dilution to prepare a working solution with 10% DMSO. Next, the compound working solution was added to the detection plate at 5 μL/well, and then 1× buffer was added at 45 μL/well to achieve another 10-fold dilution, bringing the final concentration of DMSO to 1%. The plate was then centrifuged at 1000 rpm for 1 min. The fluorescence values were read using the multimode microplate reader, with an excitation wavelength of 360 nm and an emission wavelength of 460 nm.
The original data were converted to inhibition rates and the IC50 values were obtained by curve fitting using a four-parameter method.

[3] = In-vivo pharmacokinetic study in rats; details: male, SD, rat, plasma
Experimental: This experiment was intended to evaluate the pharmacokinetic behavior of each compound after a single intravenous injection and intragastric administration and to investigate the bioavailability after intragastric administration.
Male SD rats aged 7 to 10 weeks were selected. The rats were fasted for at least 12 h before administration and were allowed to feed again 4 h after administration, with free access to water throughout the experiment.
On the day of the experiment, animals in the intravenous group were given the corresponding compound by a single injection via the tail vein at an administration volume of 5 mL/kg; the oral group was given the corresponding compound by a single intragastric administration at an administration volume of 10 mL/kg. The animals were weighed before administration, and the administration volume was calculated based on their body weight. Sample collection time points: 0.083 h (injection group), 0.25 h, 0.5 h, 1 h, 2 h, 4 h, 6 h, 8 h, and 24 h. At each time point, approximately 200 μL of whole blood was collected via the jugular vein, which was then used to prepare plasma for concentration determination by high performance liquid chromatography-tandem mass spectrometry (LC-MS/MS).
All animals were euthanized with CO2 anesthesia after the PK samples were taken at the last time point. The plasma concentrations were processed using a non-compartmental model of the pharmacokinetic software WinNonlin™ Version 6.3 (Pharsight, Mountain View, CA), and the pharmacokinetic parameters were calculated using a linear log-trapezoidal method.

[4] = Day 12, 30 mg/kg oral once daily
[5] = Day 39, 30 mg/kg oral once daily
[6] = iv, injection (tail vein), dose 2 mg/kg
[7] = oral administration, dose 20 mg/kg

IC50 [2] [nM] | AUC(0-t) [3, 6] [µM·h] | clearance [3, 6] [mL/min/kg] | bioavailability ([3]; oral 20 mg/kg vs injection 2 mg/kg) [%] | AUC(0-t) [3, 7] [µM·h] | Cmax [3, 7] [µM] | Compound | Mean tumor volume [1, 4] [mm^3] | Inhibition rate (%) at day 39 [1, 5] [%] | Mean tumor volume [1, 5] [mm^3]
1.73 | 4.05 | 17.3 | 98 | 39.7 | 9.73 | Cc1nc(N2CCC3(CC2)Cn2nccc2C3N)c(CO)nc1Sc1ccnc(N)c1Cl (stereo not drawn) [Compound 1] | 129.20 | 63.1 | 278.34
2.87 | – | – | – | – | – | CNc1nccc(Sc2nc(CO)c(N3CCC4(CC3)Cn3nccc3C4N)nc2C)c1Cl (stereo not drawn) [Compound 2] | 129.17 | 66.6 | 248.09
2.14 | – | – | – | – | – | Cc1nc(N2CCC3(CC2)Cn2nccc2C3N)c(CO)nc1Sc1cccnc1C(F)(F)F (stereo not drawn) [Compound 4] | – | – | –
3.15 | – | – | – | – | – | Cc1nc(N2CCC3(CC2)Cn2nccc2C3N)c(CO)nc1Sc1ccnc(N)c1F (stereo not drawn) [Compound 6] | – | – | –

Reference: patent US20240409543A1, “PYRROLOPYRAZOLE SPIRO COMPOUND” (CHIA TAI TIANQING PHARMACEUTICAL GROUP CO., LTD., priority 2021, published 2024)
